From patent publication US20130157258A1, “HCV NS5B PROTEASE MUTANTS” (VERTEX PHARMACEUTICALS INCORPORATED, priority 2010, published 2013)
Entries after “also recorded” stand apart in the source; their conditions may differ.

Columns and labels:
[1] = system: HCV NS5B variants (L419C/M/P/S/V, R422K, M423I/T/V, I482L/N/T, A486I/V, V494A); assay: Phenotypic analysis of substitutions selected in patients during dosing, replicon system; format: cell-based
Protocol: (§1) Treatment-naïve HCV genotype 1 patients (n=32) were randomized to receive VX-222 at doses of 250 mg BID, 500 mg BID, 750 mg BID, or 1500 mg QD for 3 days, in a treatment:placebo ratio of 6:2 (8 patients/cohort). Pegylated interferon (Peg-IFN) and ribavirin (RBV) for 48 weeks was offered to patients at the end of the study. Sequencing of NS5B was performed at baseline (Day 1), end of dosing (Day 3), and at follow-up timepoints (Days 4, 5, 10, 20, and 60). Phenotypic data (fold change in IC50 from wildtype) of substitutions selected in patients during dosing was determined using a replicon system.

[2] = system: HCV NS5B substitution at position 419 (L419C/M/P/S/V); assay: Phenotypic analysis in replicon system, substitution at position 419; format: cell-based
Protocol: as §1

[3] = system: recombinant mutant replicons (L419M, M423V, M423T, M423I, I482L, A486V, V494A); assay: HCV replicon cell assay, real-time PCR, all seven recombinant mutant replicons; format: cell-based, HCV genotype 1b
Text: (§2) All mutations were introduced into the pFKI389/NS3-3′/adapt vector (Krieger et al., J. Virol., 75, 4614-4624 (2001); Lohmann et al., J. Virol., 77, 3007-3019 (2003)) by PCR-based site-directed mutagenesis and standard recombinant DNA technologies. The pFKI389/NS3-3′/adapt vector is a “cell culture adapted HCV replicon” containing a R465G mutation within the NS5B gene, and was obtained from Reblikon GmbH, Gau-Odernheim, Germany. The “cell culture adapted replicon” was chosen instead of the wild-type replicon because the R465G mutation was found in all of the progeny RNA isolated from 9.13 replicon cells used in drug susceptibility studies to compare the fold shift in IC50s (described further below). The adaptive R465G mutation in the NS5B region was previously reported (Krieger et al., supra) and found to be very efficient in generating replicon cell colonies after RNA transfection into Huh-7 cells. […]
(§3) The 9.13 replicon cells and the stable recombinant replicon cells were seeded in a 12-well culture dish at a density of 3×10^4 cells/well in a volume of 1 mL. […] The inhibitory effect of agents against wild-type replicon cells, resistant colonies, or recombinant replicon cells was determined by monitoring the levels of HCV RNA, normalized to cellular 18S ribosomal RNA, by real time PCR using the ABI PRISM® 7700 Sequence Detection System (Applied Biosystems, Foster City, Calif., USA). […]

[4] = system: genotype 1b replicon cells (9.13 replicon cells); assay: Selection of drug-resistant HCV replicon colonies under G418; format: cell-based, HCV genotype 1b
Text: Drug-resistant HCV replicons were selected as previously described. (See, e.g., Amparo et al., 46th Conference on Antimicrobial Agents and Chemotherapy (ICAAC). 2006, Abstract 1273; Le Pogam et al., J. Virol., 80(12), 6146-54 (2006); Lin et al., J. Biol. Chem., 279(17), 17508-17514 (2004); Lu et al., Antimicrob. Agents Chemother., 48(6), 2260-2266 (2004); Trozzi et al., J. Virol., 77, 3669-3679 (2003)). Briefly, approximately 2.5×10^4 genotype 1a replicon cells (W11.8 replicon cells at passage 13) or genotype 1b replicon cells (9.13 replicon cells at passage greater than 100) were plated in 75 cm^2 cell culture flasks (Falcon 353136) in complete culture medium with high concentration of G418 (600 μg/mL). […]
(§4) Media and drugs were replaced twice a week over the course of the experiment. Three to four weeks following the initial plating, resistant clones of cells (colonies) were counted and randomly picked for culture or for direct RNA extraction. […]
Mutant replicons resistant to specific inhibitors were made using replicon constructs expressing the neomycin phosphotransferase gene (NPT). […] Cells containing mutant replicons with decreased sensitivity to an inhibitor give rise to colonies that can be counted, isolated, expanded and characterized.

I482L HCV replicon = assay: HCV replicon cell assay, real-time PCR, I482L; format: cell-based, HCV genotype 1b
Text: as §2, §3

M423T HCV replicon = assay: HCV replicon cell assay, real-time PCR, M423T; format: cell-based, HCV genotype 1b
Text: as §2, §3

V494A HCV replicon = assay: HCV replicon cell assay, real-time PCR, V494A; format: cell-based, HCV genotype 1b
Text: as §2, §3

L419S HCV replicon = assay: HCV replicon cell assay, real-time PCR, L419S resistant colony; format: cell-based; conditions: Hepatitis C virus, 96 h
Protocol: The 9.13 replicon cells and the stable recombinant replicon cells were seeded in a 12-well culture dish at a density of 3×10^4 cells/well in a volume of 1 mL. The cell culture media used for the assay was DMEM supplemented with 10% fetal bovine serum, 100 IU/mL of penicillin, 100 μg/mL streptomycin, non-essential amino acids, 2 mM glutamine and 10 mM HEPES. After incubating for 3-4 hours, candidate agents (drugs) were added at various concentrations for a final volume of 2 mL of the same culture media. Cells were incubated for 4 days at 37° C. with 5% CO2. Thereafter, total RNA (cellular and viral origin) was extracted using the RNeasy kit (Qiagen Inc.) according to the manufacturer's protocol. cDNA synthesis was performed using the MMLV reverse transcriptase and random hexamer primer (Invitrogen). The inhibitory effect of agents against wild-type replicon cells, resistant colonies, or recombinant replicon cells was determined by monitoring the levels of HCV RNA, normalized to cellular 18S ribosomal RNA, by real time PCR using the ABI PRISM® 7700 Sequence Detection System (Applied Biosystems, Foster City, Calif., USA). […]
as §4

[5] = system: HCV NS5B substitution at position 486 (A486I/V); assay: Phenotypic analysis in replicon system, substitution at position 486; format: cell-based
Protocol: as §1

[6] = system: HCV NS5B substitution at position 482 (I482L/N/T); assay: Phenotypic analysis in replicon system, substitution at position 482; format: cell-based
Protocol: as §1

L419M HCV replicon = assay: HCV replicon cell assay, real-time PCR, L419M; format: cell-based, HCV genotype 1b
Text: as §2, §3

M423I HCV replicon = assay: HCV replicon cell assay, real-time PCR, M423I; format: cell-based, HCV genotype 1b
Text: as §2, §3

A486V HCV replicon = assay: HCV replicon cell assay, real-time PCR, A486V; format: cell-based, HCV genotype 1b
Text: as §2, §3

HCV genotype 1 = assay: Phase Ib/IIa multicenter, randomized, dose-ascending study, 3 days of dosing; format: in vivo, human
Protocol: VX-222 is a non-nucleoside hepatitis C virus (HCV) NS5B polymerase inhibitor with potent in vitro activity. Safety, antiviral activity, and viral sequences were assessed in a phase Ib/IIa multicenter, randomized, dose-ascending study in genotype 1, HCV-infected patients.
as §1

[7] = system: HCV NS5B substitution at position 423 (M423I/T/V); assay: Phenotypic analysis in replicon system, substitution at position 423; format: cell-based
Protocol: as §1

[8] = system: HCV NS5B substitution at position 494 (V494A); assay: Phenotypic analysis in replicon system, substitution at position 494; format: cell-based
Protocol: as §1

M423V HCV replicon = assay: HCV replicon cell assay, real-time PCR, M423V; format: cell-based, HCV genotype 1b
Text: as §2, §3

[9] = system: HCV NS5B substitution at position 422 (R422K); assay: Phenotypic analysis in replicon system, substitution at position 422; format: cell-based
Protocol: as §1

[10] = Hepatitis C virus, 96 h, 4 days, HCV RNA by real time PCR
[11] = 250-750 mg BID or 1500 mg QD for 3 days, patients

## NC(=O)c1ncn([C@@H]2O[C@H](CO)[C@@H](O)[C@H]2O)n1 [RBV, ribavirin]
[1]; in vitro
  sensitivity of VX-222-selected variants to the agent: did not have reduced sensitivity; also recorded: remained sensitive

## CC1CCC(C(=O)N(c2cc(C#CC(C)(C)C)sc2C(=O)O)C2CCC(O)CC2)CC1 (stereo not drawn) [VX-222]
[2]
  fold change in IC50 from wildtype: 20-80 fold
[3]
  fold increase of IC50 vs wild-type replicon cells: 6- to 80 fold
[4]; VX-222 concentration of about 300 fold of the IC50, G418 selection
  resistant colony formation: No colony could be readily detected
[4]; equivalent IC50-fold concentration of VX-222, genotype 1b vs genotype 1a replicon cell line, not side by side
  frequency of resistant clones: higher for the genotype 1b replicon cell line than for the genotype 1a replicon cell line
I482L HCV replicon
  IC50 Fold-Change vs Wild-Type Replicon: ≈26 fold
I482L HCV replicon; [10]
  IC50: 0.29 µM
M423T HCV replicon
  IC50 Fold-Change vs Wild-Type Replicon: 29 fold and ≈29 fold
M423T HCV replicon; [10]
  IC50: 0.319 µM
V494A HCV replicon
  IC50 Fold-Change vs Wild-Type Replicon: ≈5.9 fold
V494A HCV replicon; [10]
  IC50: 0.132 µM
L419S HCV replicon
  IC50: > 2 µM
[5]
  fold change in IC50 from wildtype: ~50 fold
[6]
  fold change in IC50 from wildtype: ~26 fold
L419M HCV replicon
  IC50 Fold-Change vs Wild-Type Replicon: 80 fold and ≈80 fold
L419M HCV replicon; [10]
  IC50: 0.9 µM
M423I HCV replicon
  IC50 Fold-Change vs Wild-Type Replicon: 7.1 fold and ≈7.1 fold
M423I HCV replicon; [10]
  IC50: 0.0772 µM
A486V HCV replicon
  IC50 Fold-Change vs Wild-Type Replicon: 50 fold and ≈50 fold
A486V HCV replicon; [10]
  IC50: 0.843 µM
HCV genotype 1; 250 mg (BID), after three days of dosing, treatment-naive genotype 1 patients
  mean HCV RNA decline: 3.1 log 10
HCV genotype 1; 500 mg (BID), after three days of dosing, treatment-naive genotype 1 patients
  mean HCV RNA decline: 3.4 log 10
HCV genotype 1; 750 mg (BID), after three days of dosing, treatment-naive genotype 1 patients
  mean HCV RNA decline: 3.2 log 10
HCV genotype 1; 1500 mg (QD), after three days of dosing, treatment-naive genotype 1 patients
  mean HCV RNA decline: 3.4 log 10
HCV genotype 1; [11]
  most common reported adverse effects (AEs): diarrhea, headache, nausea, fatigue and fever
  severity of the majority of AEs: mild in severity
HCV genotype 1; all four dose groups
  mean HCV RNA decline: greater than 3 log 10
[7]
  fold change in IC50 from wildtype: seven to ten
[8]
  fold change in IC50 from wildtype: six
M423V HCV replicon
  IC50 Fold-Change vs Wild-Type Replicon: 10 fold and ≈10 fold
M423V HCV replicon; [10]
  IC50: 0.11 µM
[1]; range over all variants selected in patients
  fold change in IC50 from wildtype: 6-80 fold
[9]
  fold change in IC50 from wildtype: ~74 fold
